For one data set, the target named is p97 (Homo sapiens, UniProt P55072). The data set is described as follows: BioMol Green ATPase assay. Format: biochemical. The conditions noted are these: 200 μM ATP, read-out: P97 Biomolgreen. An excerpt: Biomol Green (Enzo) is a […] from a biochemical reaction. Because of its high sensitivity, the assay is suitable for monitoring enzyme activities at very early substrate conversions requiring very low amount of enzymes. […] The assay procedure used may be the same as in Zhang et al., “Altered cofactor regulation with disease-associated p97/VCP mutations,” Proc. Natl. Acad. Sci. USA, 112(14), E1705-E1714 (2015).
Sequence of p97 (P55072 whole entry): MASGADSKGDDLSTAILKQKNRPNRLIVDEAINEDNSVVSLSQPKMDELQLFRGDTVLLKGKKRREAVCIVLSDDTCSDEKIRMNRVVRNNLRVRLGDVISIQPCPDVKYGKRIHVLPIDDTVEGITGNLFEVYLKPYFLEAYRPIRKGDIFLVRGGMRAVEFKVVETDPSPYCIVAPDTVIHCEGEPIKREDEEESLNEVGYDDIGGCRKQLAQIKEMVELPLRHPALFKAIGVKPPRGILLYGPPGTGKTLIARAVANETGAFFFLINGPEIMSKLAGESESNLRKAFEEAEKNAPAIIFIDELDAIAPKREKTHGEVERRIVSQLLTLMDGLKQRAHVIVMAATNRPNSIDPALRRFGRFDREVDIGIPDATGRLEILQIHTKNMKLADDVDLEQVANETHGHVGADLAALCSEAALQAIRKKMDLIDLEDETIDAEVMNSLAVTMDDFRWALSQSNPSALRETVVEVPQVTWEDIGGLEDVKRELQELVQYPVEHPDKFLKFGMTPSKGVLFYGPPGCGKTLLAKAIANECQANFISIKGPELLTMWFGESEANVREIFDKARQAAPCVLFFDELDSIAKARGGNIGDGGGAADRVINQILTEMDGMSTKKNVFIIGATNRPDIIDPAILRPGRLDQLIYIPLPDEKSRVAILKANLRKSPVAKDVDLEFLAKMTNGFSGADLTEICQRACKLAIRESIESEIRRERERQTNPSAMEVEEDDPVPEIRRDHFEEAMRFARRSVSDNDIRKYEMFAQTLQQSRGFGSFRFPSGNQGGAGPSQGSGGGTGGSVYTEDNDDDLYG
The BioMol Green ATPase assay procedure used was that which was disclosed in Zhang, et al., “Altered cofactor regulation with disease-associated p97/VCP mutations,” Proc. Natl. Acad. Sci. USA, 112(14), E1705-E1714 (2015). The following Table IV provides relevant results. The compound number correlates to the numbered compounds in Table III. Compounds also show activity in a cell-based assay such as the ubiquitin assay (assay as described in, e.g., (1) Dantuma et al., “Short-lived green fluorescent proteins for quantifying ubiquitin/proteasome-dependent proteolysis in living cells,” Nat. Biotechnol. 2000, 18, 538-543; and (2) WO 2010003908).
Turning to `Cc1cc(OCc2cnc(SC3C=CCCC3)n2-c2cccnc2)ccc1C#CCNC1CCN(C)CC1` (stereo not shown) [Compound 9, N-(3-(4-((2-(cyclohex-2-en-1-ylthio)-1-(pyridin-3-yl)-1H-imidazol-5-yl)methoxy)-2-methylphenyl)prop-2-yn-1-yl)-1-methylpiperidin-4-amine], the IC50 came to 56 nM.
Still for that read-out and setting: with `[2H]C1([2H])C([2H])([2H])C([2H])([2H])C([2H])(Sc2ncc(COc3cc(Cl)c(C#CCO)cc3Cl)n2-c2cccnc2)C1([2H])[2H]` [Compound 45] the figure was 200 nM; with `Cc1cc(OCc2cnc(SC3CC3)n2-c2cccnc2)ccc1C#CCO` [Compound 17], 240 nM; with `CC#Cc1nc(SC2CCCC2)n(-c2cccnc2)c1COc1cc(F)c(C#CCOC(=O)NC2CCN(C)CC2)c(F)c1` [Compound 40], 20 nM.
On the same count and under the same terms, in the case of `Cc1cc(OCc2cnc(SC3C=CCCC3)n2-c2cccnc2)ccc1C#CCOC(=O)NC1CCOCC1` (stereo not shown) [Compound 2] it was 34 nM; in that of `Cc1cc(OCc2cnc(CC3CCCC3)n2-c2cccnc2)ccc1C#CCOC(=O)NC1CCN(C)CC1` [Compound 26], 50 nM; in that of `COCOCC#Cc1ccc(OCc2cnc(SC3C=CCCC3)n2-c2cccnc2)cc1C` (stereo not shown) [Compound 6], 100 nM.
Same read-out and setting: with `Cc1cc(OCc2c(Cl)nc(SC3C=CCCC3)n2-c2cccnc2)ccc1C#CCO` (stereo not shown) [Compound 18] the figure was 34 nM.
Regarding `COC(=O)/C=C/c1nc(SC2CCCC2)n(-c2cccnc2)c1COc1ccc(C#CCO)c(C)c1` [Compound 27, Methyl (E)-3-(2-(cyclopentylthio)-5-((4-(3-hydroxyprop-1-yn-1-yl)-3-methylphenoxy)methyl)-1-(pyridin-3-yl)-1H-imidazol-4-yl)acrylate], the IC50 was 110 nM.
Same read-out and setting: with `[2H]C1([2H])C([2H])([2H])C([2H])([2H])C([2H])(Sc2nc(Br)c(COc3ccc(C#CCOC(=O)NCCN4CCN(C(C)C)CC4)c(C)c3)n2-c2cccnc2)C1([2H])[2H]` [Compound 21] the figure was 17 nM; with `Cc1cc(OCc2cnc(SC3C=CCCC3)n2-c2cccnc2)ccc1C#CCOC(=O)NC1CCN(C)CC1` (stereo not shown) [Compound 15], 14 nM.
On the same count and under the same terms, in the case of `[2H]C1([2H])C([2H])([2H])C([2H])([2H])C([2H])(Sc2ncc(COc3cc(F)c(C#CCOC(=O)NC4CCN(C)CC4)cc3F)n2-c2cccnc2)C1([2H])[2H]` [Compound 35] it was 8 nM; in that of `COCCNC(=O)OCC#Cc1ccc(OCc2cnc(SC3C=CCCC3)n2-c2cccnc2)cc1C` (stereo not shown) [Compound 3], 39 nM.
The same measure, in the same setting: in the case of `Cc1cc(OCc2c(C(C)(C)O)nc(SC3CCCC3)n2-c2cccnc2)ccc1C#CCO` [Compound 28, 3-(4-((2-(Cyclopentylthio)-4-(2-hydroxypropan-2-yl)-1-(pyridin-3-yl)-1H-imidazol-5-yl)methoxy)-2-methylphenyl)prop-2-yn-1-ol] it was 250 nM.
With `COCCOCC#Cc1ccc(OCc2cnc(SC3C=CCCC3)n2-c2cccnc2)cc1C` (stereo not shown) [Compound 7], the IC50 worked out at 110 nM.
Still for that read-out and setting: with `Cc1cc(OCc2cnc(SC3C=CCCC3)n2-c2cccnc2)ccc1Cl` (stereo not shown) [Compound 34] the figure was 160 nM.
As for `CCS(=O)(=O)c1ncc(COc2ccc(C#CCO)c(C)c2)n1-c1cccnc1` [Compound 16, 3-(4-((2-(Ethylsulfonyl)-1-(pyridin-3-yl)-1H-imidazol-5-yl)methoxy)-2-methylphenyl)prop-2-yn-1-ol], the IC50 was more than 6700 nM.
Take `[2H]C1([2H])C([2H])([2H])C([2H])([2H])C([2H])(Sc2nc(Br)c(COc3ccc(C#CCO)c(C)c3)n2-c2cccnc2)C1([2H])[2H]` [Compound 20]: the IC50 stood at 29 nM.
Same read-out and setting: in the case of `Cc1cc(OCc2c(C(N)=O)nc(SC3CCCC3)n2-c2cccnc2)ccc1C#CCO` [Compound 25] it was 50 nM; in that of `[2H]C1([2H])C([2H])([2H])C([2H])([2H])C([2H])(Sc2ncc(COc3ccc(C#CCOC(=O)NC4CCN(C)CC4)c(F)c3)n2-c2cccnc2)C1([2H])[2H]` [Compound 37, 3-(4-((2-((Cyclopentyl-d9)thio)-1-(pyridin-3-yl)-1H-imidazol-5-yl)methoxy)-2-fluorophenyl)prop-2-yn-1-yl (1-methylpiperidin-4-yl)carbamate], 17 nM; in that of `Cc1cc(OCc2c(C#N)nc(SC3CCCC3)n2-c2cccnc2)ccc1C#CCO` [Compound 22], 60 nM.
For the compound `Cc1cc(OCc2cnc(SC3C=CCCC3)n2-c2cccnc2)ccc1C#CCOC(=O)NC(C)C` (stereo not shown) [Compound 14], the IC50 is 27 nM.
Still for that read-out and setting: with `Cc1cc(OCc2c(C#CCO)nc(SC3CCCC3)n2-c2cccnc2)ccc1C#CCO` [Compound 23, 3-(4-((2-(Cyclopentylthio)-4-(3-hydroxyprop-1-yn-1-yl)-1-(pyridin-3-yl)-1H-imidazol-5-yl)methoxy)-2-methylphenyl)prop-2-yn-1-ol] the figure was 30 nM.
As for `[2H]C1([2H])C([2H])([2H])C([2H])([2H])C([2H])(Sc2ncc(COc3cc(F)c(C#CCOC(=O)NC4CCN(C)CC4)c(F)c3)n2-c2cccnc2)C1([2H])[2H]` [Compound 39], the IC50 was 19 nM.
Still for that read-out and setting: in the case of `Cc1cc(OCc2cnc(SC3C=CCCC3)n2-c2cccnc2)ccc1C#CCOC(=O)NCCN1CCN(C)CC1` (stereo not shown) [Compound 11] it was 20 nM.
On to `Cc1cc(OCc2cnc(SC3C=CCCC3)n2-c2cccnc2)ccc1-c1ccc(S(C)(=O)=O)cc1` (stereo not shown) [Compound 31], for which the IC50 was 54 nM.
The same measure, in the same setting: in the case of `OCC#Cc1c(F)cc(OCc2c(Cl)nc(SC3C=CCCC3)n2-c2cccnc2)cc1F` (stereo not shown) [Compound 42] it was 46 nM; in that of `Cc1cc(OCc2cnc(SC3C=CCCC3)n2-c2cccnc2)ccc1C#CCOC(=O)NCCN1CCOCC1` (stereo not shown) [Compound 4], 36 nM; in that of `Fc1cc(OCc2cnc(SC3C=CCCC3)n2-c2cccnc2)ccc1Br` (stereo not shown) [Compound 33], 130 nM.
`Cc1cc(OCc2cnc(SC3C=CCCC3)n2-c2cccnc2)ccc1C#CCNCCN(C)C` (stereo not shown) [Compound 10]: the IC50 amounted to 50 nM.
On the same count and under the same terms, with `Cc1cc(OCc2c(Br)nc(SC3C=CCCC3)n2-c2cccnc2)ccc1-c1ccc(S(C)(=O)=O)cc1` (stereo not shown) [Compound 30] the figure was 66 nM; with `CCOC(=O)c1nc(SC2CCCC2)n(-c2cccnc2)c1COc1ccc(C#CCO)c(C)c1` [Compound 24], 50 nM.
Same read-out and setting: in the case of `Cc1cc(OCc2c(Br)nc(SC3C=CCCC3)n2-c2cccnc2)ccc1C#CCO` (stereo not shown) [Compound 12] it was 50 nM.
Same read-out and setting: in the case of `Cc1cc(OCc2cnc(SC3C=CCCC3)n2-c2cccnc2)ccc1C#CCO` (stereo not shown) [Compound 1, 3-(4-((2-(Cyclohex-2-en-1-ylthio)-1-(pyridin-3-yl)-1H-imidazol-5-yl)methoxy)-2-methylphenyl)prop-2-yn-1-ol] it was 37 nM; in that of `[2H]C1([2H])C([2H])([2H])C([2H])([2H])C([2H])(Sc2ncc(COc3cc(F)c(C#CCO)cc3F)n2-c2cccnc2)C1([2H])[2H]` [Compound 38], 19 nM; in that of `[2H]C1([2H])C([2H])([2H])C([2H])([2H])C([2H])(Sc2ncc(COc3cc(F)c(C#CCO)c(F)c3)n2-c2cccnc2)C1([2H])[2H]` [Compound 43], 56 nM.
Take `Cc1cc(OCc2c(Cl)nc(SC3C=CCCC3)n2-c2cccnc2)ccc1-c1ccc(S(C)(=O)=O)cc1` (stereo not shown) [Compound 32]: the IC50 worked out at 37 nM.
Same read-out and setting: in the case of `[2H]C1([2H])C([2H])([2H])C([2H])([2H])C([2H])(Sc2ncc(COc3cc(Cl)c(C#CCOC(=O)NC4CCN(C)CC4)cc3Cl)n2-c2cccnc2)C1([2H])[2H]` [Compound 44] it was 60 nM; in that of `Cc1cc(OCc2c(Br)nc(SC3C=CCCC3)n2-c2cccnc2)ccc1C#CCOC(=O)NCCN1CCN(C(C)C)CC1` (stereo not shown) [Compound 13], 32 nM.
On the same count and under the same terms, in the case of `Cc1cc(OCc2c(Br)nc(SC3CC3)n2-c2cccnc2)ccc1C#CCOC(=O)N1CCN(C(C)C)CC1` [Compound 19] it was 57 nM.
The same measure, in the same setting: in the case of `CN1CCC(NC(=O)OCC#Cc2cc(F)c(OCc3cnc(SC4C=CCCC4)n3-c3cccnc3)cc2F)CC1` (stereo not shown) [Compound 36] it was 11 nM.
`CC(=O)NCC#Cc1ccc(OCc2cnc(SC3C=CCCC3)n2-c2cccnc2)cc1C` (stereo not shown) [Compound 8, N-(3-(4-((2-(Cyclohex-2-en-1-ylthio)-1-(pyridin-3-yl)-1H-imidazol-5-yl)methoxy)-2-methylphenyl)-prop-2-yn-1-yl)acetamide]: the IC50 was 60 nM.
Still for that read-out and setting: in the case of `CC#Cc1nc(SC2CCCC2)n(-c2cccnc2)c1COc1cc(F)c(C#CCO)c(F)c1` [Compound 41] it was 40 nM; in that of `[2H]C1([2H])C([2H])([2H])C([2H])([2H])C([2H])(Sc2ncc(COc3ccc(-c4ccc(S(C)(=O)=O)cc4)c(C)c3)n2-c2cccnc2)C1([2H])[2H]` [Compound 29], 75 nM.
Still for that read-out and setting: with `Cc1cc(OCc2cnc(SC(C)C)n2-c2cccnc2)ccc1C#CCOC(=O)NCCN1CCN(C(C)C)CC1` [Compound 5] the figure was 100 nM.

Test system in the next data set: not given
Assay: not given
Details: not given
`Cc1cc(OCc2c(C(C)(C)O)nc(SC3CCCC3)n2-c2cccnc2)ccc1C#CCO` [Compound 28, 3-(4-((2-(Cyclopentylthio)-4-(2-hydroxypropan-2-yl)-1-(pyridin-3-yl)-1H-imidazol-5-yl)methoxy)-2-methylphenyl)prop-2-yn-1-ol] yielded a melting point of 119 to 121 °C.

(Values after patent publication US11773075B2, “Modulators of p97 AAA ATPase activity” (University of Pittsburgh—Of the Commonwealth System of …, priority 2017, dated 2023).)
